Test results taken from patent publication US20080182859A1 (Curis, Inc., priority 2006, published 2008).
Structures can show the parent of a compound that is named as a salt.

Experiments:
Assay type in all cases: cell-based
sonic hedgehog pathway [1] = assay: Human hedgehog reporter assay HEPM-GliLuc (HGL); details: HepM human embryonic palatal mesenchymal cells, Gli-luciferase reporter
How it was run: (§1)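 Stable Gli-promoter luciferase reporter lines (human HepM, Daoy; mouse S12) plated at 10,000–20,000 cells/well, switched to 0.5% FBS after 48–72 h, then given compound (1–5 μM; 11-point 1:3 dose curves) with or without octyl-modified hedgehog protein (1–5 ng/ml) for 24 h. Luminescence read; AMAX vs plate controls and EC50 derived.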

sonic hedgehog pathway [2] = assay: Hedgehog pathway Gli-luciferase reporter assay, TM3 cells; details: TM3 mouse Leydig cells
How it was run: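 Reporter cells stably selected after gli-luciferase plasmid transfection; test article dosed over 11 points (1:3). Read as luminescence after 24 h treatment in 0.5% serum; activity >20% AMAX versus plate controls deemed active.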

sonic hedgehog pathway [3] = assay: Hedgehog pathway Gli-luciferase reporter assay, S12 cells; details: S12 mouse embryonic mesenchymal cells, read-out: S12 Avg. EC50
How it was run: as §1

sonic hedgehog pathway [4] = assay: Human hedgehog reporter assay Daoy-GliLuc (DGL); details: Daoy human medulloblastoma cells, Gli-luciferase reporter; read-out: Daoy Avg. EC50
How it was run: as §1

Measured: EC50

CN[C@H]1CC[C@@H](N(Cc2cc(-c3ccc(N(C)C(C)=O)cc3)ccc2OC)C(=O)c2sc3c(F)ccc(F)c3c2Cl)CC1 [Compound 336, 3-Chloro-4,7-difluoro-benzo[b]thiophene-2-carboxylic acid [4′-(acetyl-methyl-amino)-4-methoxy-biphenyl-3-ylmethyl]-(4-methylamino-cyclohexyl)-amide hydrochloride]
< 50 nM: all assays above

CN[C@H]1CC[C@@H](N(Cc2cc(-c3ccc(CO)cc3)ccc2OC)C(=O)c2sc3c(F)ccc(F)c3c2Cl)CC1 [Compound 338, 3-Chloro-4,7-difluoro-benzo[b]thiophene-2-carboxylic acid (4′-hydroxymethyl-4-methoxy-biphenyl-3-ylmethyl)-(4-methylamino-cyclohexyl)-amide trifluoroacetate]
< 50 nM: all assays above

CN[C@H]1CC[C@@H](N(Cc2cc(-c3ccncc3)ccc2OC)C(=O)c2sc3c(F)ccc(F)c3c2Cl)CC1 [Compound 342, 3-Chloro-4,7-difluoro-benzo[b]thiophene-2-carboxylic acid (2-methoxy-5-pyridin-4-yl-benzyl)-(4-methylamino-cyclohexyl)-amide dihydrochloride]
< 50 nM: all assays above

CN[C@H]1CC[C@@H](N(Cc2cc(-c3ccc(C(N)=O)cc3)ccc2OC)C(=O)c2sc3cccc(F)c3c2Cl)CC1 [Compound 346, 3-Chloro-4-fluoro-benzo[b]thiophene-2-carboxylic acid (4′-carbamoyl-4-methoxy-biphenyl-3-ylmethyl)-(4-methylamino-cyclohexyl)-amide hydrochloride]
< 50 nM: all assays above

CN[C@H]1CC[C@@H](N(Cc2cc(-c3ccnc(C)c3)ccc2OC)C(=O)c2sc3cccc(F)c3c2Cl)CC1 [Compound 348, 3-Chloro-4-fluoro-benzo[b]thiophene-2-carboxylic acid [2-methoxy-5-(2-methyl-pyridin-4-yl)-benzyl]-(4-methylamino-cyclohexyl)-amide bis(trifluoroacetate)]
< 50 nM: all assays above

CNc1cc(-c2ccc(OC)c(CN(C(=O)c3sc4c(F)ccc(F)c4c3Cl)[C@H]3CC[C@@H](NC)CC3)c2)ccn1 [Compound 357, 3-Chloro-4,7-difluoro-benzo[b]thiophene-2-carboxylic acid [2-methoxy-5-(2-methylamino-pyridin-4-yl)-benzyl]-(4-methylamino-cyclohexyl)-amide bis(trifluoroacetate)]
< 50 nM: all assays above

CN[C@H]1CC[C@@H](N(Cc2cc(-c3ccncc3)ccc2OC)C(=O)c2sc3cccc(F)c3c2Cl)CC1 [Compound 359, 3-Chloro-4-fluoro-benzo[b]thiophene-2-carboxylic acid (2-methoxy-5-pyridin-4-yl-benzyl)-(4-methylamino-cyclohexyl)-amide dihydrochloride]
< 50 nM: all assays above

CN[C@H]1CC[C@@H](N(Cc2cc(-c3cccnc3)ccc2OC)C(=O)c2sc3c(F)ccc(F)c3c2Cl)CC1 [Compound 361, 3-Chloro-4,7-difluoro-benzo[b]thiophene-2-carboxylic acid (2-methoxy-5-pyridin-3-yl-benzyl)-(4-methylamino-cyclohexyl)-amide dihydrochloride]
< 50 nM: all assays above
